Laboratory results taken from PubChem BioAssay AID330 (DTP/NCI, 2004).
Several values for one entry are separate records, joined by “and”; a condition that tells them apart may be missing. Identical values can stand only once. Inconclusive results and toxic doses are left out.

Tested on: P388 leukemia ip, CD2F1 mice, survival T/C
Test: NCI In Vivo Anticancer Drug Screen. Data for tumor model P388 Leukemia (intraperitoneal) in CD2F1 (CDF1) mice
Conditions: endpoint: median survival time, higher = longer survival
In short: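 Mice carrying the transplanted tumor received test compound or vehicle. Survival was recorded in each group, and the value is the treated-group measurement divided by that of the vehicle-treated control group.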

[1] = dose: 100.0 mg/kg/injection, schedule: Q04DX003 (ip), vehicle: saline with Tween-80
[2] = dose: 200.0 mg/kg/injection, schedule: Q04DX003 (ip), vehicle: saline with Tween-80
[3] = dose: 400.0 mg/kg/injection, schedule: Q04DX003 (ip), vehicle: saline with Tween-80
[4] = dose: 60.0 mg/kg/injection, schedule: Q01DX005 (ip), vehicle: saline with Tween-80
[5] = dose: 120.0 mg/kg/injection, schedule: Q01DX005 (ip), vehicle: saline with Tween-80
[6] = dose: 240.0 mg/kg/injection, schedule: Q01DX005 (ip), vehicle: saline with Tween-80
[7] = dose: 50.0 mg/kg/injection, schedule: Q01DX005 (ip), vehicle: Klucel (hydroxypropylcellulose) (HPC)
[8] = dose: 100.0 mg/kg/injection, schedule: Q01DX005 (ip), vehicle: Klucel (hydroxypropylcellulose) (HPC)
[9] = dose: 200.0 mg/kg/injection, schedule: Q01DX005 (ip), vehicle: Klucel (hydroxypropylcellulose) (HPC)
[10] = dose: 60.0 mg/kg/injection, schedule: Q01DX005 (ip), vehicle: Klucel (hydroxypropylcellulose) (HPC)
[11] = dose: 50.0 mg/kg/injection, schedule: Q01DX005 (ip), vehicle: saline with Tween-80
[12] = dose: 100.0 mg/kg/injection, schedule: Q01DX005 (ip), vehicle: saline with Tween-80
[13] = dose: 200.0 mg/kg/injection, schedule: Q01DX005 (ip), vehicle: saline with Tween-80
[14] = dose: 25.0 mg/kg/injection, schedule: Q01DX005 (ip), vehicle: saline with Tween-80

## CC(=O)NCCN=Cc1ccccc1
[1]
  T/C: 100 % of control
[2]
  T/C: 100 % of control
[3]
  T/C: 100 % of control

## COC12C=CC(CC1)C1C(=O)C=CC(=O)C12 (stereo not drawn)
[4]
  T/C: 105 % of control
[5]
  T/C: 105 % of control
[6]
  T/C: 112 % of control

## O=c1[nH]c(=O)c2c([nH]1)oc1ccccc12
[4]
  T/C: 102 % of control
[5]
  T/C: 95 % of control
[6]
  T/C: 98 % of control

## CCCCOC(=O)NC(=O)c1cc2ccc(N(CC)CC)cc2oc1=O
[4]
  T/C: 95 % of control
[5]
  T/C: 87 % of control
[6]
  T/C: 87 % of control

## NC(=S)c1ccc(N=Cc2ccc(Cl)cc2)cc1
dose: 50.0 mg/kg/injection, schedule: Q01DX001 (ip), vehicle: Klucel (hydroxypropylcellulose) (HPC)
  T/C: 97 % of control
dose: 100.0 mg/kg/injection, schedule: Q01DX001 (ip), vehicle: Klucel (hydroxypropylcellulose) (HPC)
  T/C: 100 % of control
dose: 200.0 mg/kg/injection, schedule: Q01DX001 (ip), vehicle: Klucel (hydroxypropylcellulose) (HPC)
  T/C: 102 % of control

## O=C(O)C[CH2][Sn]([Cl])([Cl])[CH2]CC(=O)O
[7]
  T/C: 98 % of control
[8]
  T/C: 98 % of control
[9]
  T/C: 91 % of control

## O=[N+]([O-])c1cn(CCNc2c3ccccc3nc3ccccc23)cn1
[4]
  T/C: 112 % of control

## CCN1c2ccccc2S(=O)(=O)n2c(Cc3ccccc3)nnc21
dose: 100.0 mg/kg/injection, schedule: Q01DX001 (ip), vehicle: saline with Tween-80
  T/C: 93 % of control
dose: 200.0 mg/kg/injection, schedule: Q01DX001 (ip), vehicle: saline with Tween-80
  T/C: 92 % of control

## NNC(=O)CCC(=O)NN
dose: 100.0 mg/kg/injection, schedule: Q04DX002 (ip), vehicle: saline
  T/C: 101 % of control
dose: 200.0 mg/kg/injection, schedule: Q04DX002 (ip), vehicle: saline
  T/C: 96 % of control

## COc1ccc(C2=C(C#N)C(=C(C#N)C#N)NC(N)=C2C#N)cc1
[10]
  T/C: 105 % of control
dose: 120.0 mg/kg/injection, schedule: Q01DX005 (ip), vehicle: Klucel (hydroxypropylcellulose) (HPC)
  T/C: 91 % of control

## O=C(CC(=O)c1ccc(Cl)cc1)c1ccc(Cl)cc1
dose: 50.0 mg/kg/injection, schedule: Q04DX003 (ip), vehicle: saline with Tween-80
  T/C: 100 % of control
[1]
  T/C: 100 % of control
[2]
  T/C: 98 % of control
[3]
  T/C: 93 % of control

## Cc1ccccc1C(=O)c1cc(Br)ccc1[N+](=O)[O-]
dose: 50.0 mg/kg/injection, schedule: Q01DX009 (ip), vehicle: saline
  T/C: 91 % of control
dose: 100.0 mg/kg/injection, schedule: Q01DX009 (ip), vehicle: saline
  T/C: 100 % of control
dose: 200.0 mg/kg/injection, schedule: Q01DX009 (ip), vehicle: saline
  T/C: 100 % of control

## Cc1nc2ccc(N)cc2oc1=O
dose: 15.0 mg/kg/injection, schedule: Q01DX005 (ip), vehicle: saline with Tween-80
  T/C: 100 % of control
dose: 30.0 mg/kg/injection, schedule: Q01DX005 (ip), vehicle: saline with Tween-80
  T/C: 101 % of control
[4]
  T/C: 105 % of control and 98 % of control

## CCOC(=O)CNC(=O)Sc1ccc(C(C)(C)C)cc1C
dose: 50.0 mg/kg/injection, schedule: Q01DX005 (ip), vehicle: saline + Tween-80 + alcohol
  T/C: 100 % of control (2×) and 107 % of control
dose: 100.0 mg/kg/injection, schedule: Q01DX005 (ip), vehicle: saline + Tween-80 + alcohol
  T/C: 110 % of control and 111 % of control and 118 % of control
dose: 200.0 mg/kg/injection, schedule: Q01DX005 (ip), vehicle: saline + Tween-80 + alcohol
  T/C: 114 % of control and 120 % of control
dose: 400.0 mg/kg/injection, schedule: Q01DX005 (ip), vehicle: saline + Tween-80 + alcohol
  T/C: 114 % of control

## CCO/C(CC#N)=C(/C#N)C(=O)Nc1ccc(OC)cc1
[4]
  T/C: 95 % of control
[5]
  T/C: 93 % of control
[6]
  T/C: 89 % of control

## Nc1ccn(COCCOCc2ccccc2)c(=O)n1
dose: 100.0 mg/kg/injection, schedule: Q04DX002 (ip), vehicle: Klucel (hydroxypropylcellulose) (HPC)
  T/C: 98 % of control
dose: 200.0 mg/kg/injection, schedule: Q04DX002 (ip), vehicle: Klucel (hydroxypropylcellulose) (HPC)
  T/C: 100 % of control
dose: 400.0 mg/kg/injection, schedule: Q04DX002 (ip), vehicle: Klucel (hydroxypropylcellulose) (HPC)
  T/C: 99 % of control

## C=C(OC(=O)CN(C)C)c1ccccc1
[1]
  T/C: 98 % of control
[2]
  T/C: 100 % of control
[3]
  T/C: 94 % of control

## CCN(CCCl)c1ccccc1
dose: 3.12 mg/kg/injection, schedule: Q01DX009 (ip), vehicle: saline
  T/C: 105 % of control
dose: 6.25 mg/kg/injection, schedule: Q01DX009 (ip), vehicle: saline
  T/C: 106 % of control
dose: 12.5 mg/kg/injection, schedule: Q01DX009 (ip), vehicle: saline
  T/C: 116 % of control
dose: 25.0 mg/kg/injection, schedule: Q01DX009 (ip), vehicle: saline
  T/C: 106 % of control and 115 % of control

## COCCOCn1cccc1Cc1ccc(OC)cc1
dose: 100.0 mg/kg/injection, schedule: Q01DX001 (ip), vehicle: distilled water + Tween-80 + alcohol
  T/C: 100 % of control
dose: 200.0 mg/kg/injection, schedule: Q01DX001 (ip), vehicle: distilled water + Tween-80 + alcohol
  T/C: 105 % of control
dose: 400.0 mg/kg/injection, schedule: Q01DX001 (ip), vehicle: distilled water + Tween-80 + alcohol
  T/C: 96 % of control

## CCSc1nc2ccc(N3C(=O)C=CC3=O)cc2s1
dose: 3.12 mg/kg/injection, schedule: Q01DX009 (ip), vehicle: Klucel (hydroxypropylcellulose) (HPC)
  T/C: 111 % of control
dose: 6.25 mg/kg/injection, schedule: Q01DX009 (ip), vehicle: Klucel (hydroxypropylcellulose) (HPC)
  T/C: 119 % of control
dose: 12.5 mg/kg/injection, schedule: Q01DX009 (ip), vehicle: Klucel (hydroxypropylcellulose) (HPC)
  T/C: 115 % of control

## CC(C)CC(NC=O)C(=O)O (stereo not drawn)
[7]
  T/C: 104 % of control and 109 % of control
[8]
  T/C: 95 % of control and 100 % of control
[9]
  T/C: 90 % of control

## CN(CCO)C1=C(N2CC2)C(=O)C(N(C)CCO)=C(N2CC2)C1=O
dose: 0.4 mg/kg/injection, schedule: Q01DX009 (ip), vehicle: saline
  T/C: 175 % of control and 194 % of control
dose: 0.8 mg/kg/injection, schedule: Q01DX009 (ip), vehicle: saline
  T/C: 194 % of control and 245 % of control
dose: 1.6 mg/kg/injection, schedule: Q01DX009 (ip), vehicle: saline
  T/C: 119 % of control and 262 % of control

## Fc1c(F)c(F)c(SN=S=Nc2ccccc2)c(F)c1F
[7]
  T/C: 106 % of control
[8]
  T/C: 108 % of control

## COc1ccc(C(NC(N)=O)c2cc3c(cc2OC(C)=O)OCO3)c(OC)c1 (stereo not drawn)
dose: 15.0 mg/kg/injection, schedule: Q01DX005 (ip), vehicle: Klucel (hydroxypropylcellulose) (HPC)
  T/C: 91 % of control
dose: 30.0 mg/kg/injection, schedule: Q01DX005 (ip), vehicle: Klucel (hydroxypropylcellulose) (HPC)
  T/C: 92 % of control
[10]
  T/C: 90 % of control and 91 % of control

## CN(C)c1nc(N(C)C)n2nc(-c3ccccc3[N+](=O)[O-])nc2n1
[1]
  T/C: 104 % of control
[2]
  T/C: 96 % of control
[3]
  T/C: 95 % of control

## O=c1c2ccccc2nc(-c2ccccc2Cl)n1/N=C/c1ccc(Cl)cc1Cl
[11]
  T/C: 93 % of control
[12]
  T/C: 103 % of control
[13]
  T/C: 102 % of control

## CC(C)NC(=O)OCc1c(COC(=O)NC(C)C)c(S(C)(=O)=O)n2c1CCC2
[14]
  T/C: 89 % of control
[11]
  T/C: 86 % of control
[12]
  T/C: 88 % of control
[13]
  T/C: 91 % of control

## CCOC(=O)C1n2c(=O)n(-c3ccc(Cl)cc3)c(=O)n21
[7]
  T/C: 96 % of control
[8]
  T/C: 87 % of control
[9]
  T/C: 92 % of control

## CCOC(=O)c1c(-c2ccccc2)csc1NC(=O)CN1CCOCC1
dose: 12.5 mg/kg/injection, schedule: Q01DX005 (ip), vehicle: saline with Tween-80
  T/C: 98 % of control
[14]
  T/C: 90 % of control
[11]
  T/C: 86 % of control
[13]
  T/C: 88 % of control

## COc1ccc(CCN2COc3ccc4ccc(=O)oc4c3C2)cc1OC
dose: 100.0 mg/kg/injection, schedule: Q01DX009 (ip), vehicle: saline with Tween-80
  T/C: 100 % of control
[1]
  T/C: 110 % of control
[2]
  T/C: 115 % of control
dose: 400.0 mg/kg/injection, schedule: Q01DX009 (ip), vehicle: saline with Tween-80
  T/C: 100 % of control
[3]
  T/C: 110 % of control

## COc1ccc2c(Cc3ccccc3)c3[n+](cc2c1OC)CCc1cc2c(cc1-3)OCO2
dose: 1.56 mg/kg/injection, schedule: Q01DX005 (ip), vehicle: Klucel (hydroxypropylcellulose) (HPC)
  T/C: 113 % of control
dose: 3.12 mg/kg/injection, schedule: Q01DX005 (ip), vehicle: Klucel (hydroxypropylcellulose) (HPC)
  T/C: 115 % of control
dose: 6.25 mg/kg/injection, schedule: Q01DX005 (ip), vehicle: Klucel (hydroxypropylcellulose) (HPC)
  T/C: 113 % of control and 115 % of control
dose: 12.5 mg/kg/injection, schedule: Q01DX005 (ip), vehicle: Klucel (hydroxypropylcellulose) (HPC)
  T/C: 118 % of control

## C=CC(=O)Oc1ccccc1/C=C/C(=O)CCCCCC
[11]
  T/C: 98 % of control
[12]
  T/C: 107 % of control
[13]
  T/C: 105 % of control
